Measurements reported in ChEMBL document CHEMBL1130597, “Design of a high affinity peptidomimetic opioid agonist from peptide pharmacophore models” (Bioorg Med Chem Lett, 1998).

Biological target: Mu-type opioid receptor (Rattus norvegicus, UniProt P33535)
Assay: Compound was tested for its ability to stimulate [35S]GTP-gamma-S, binding to membranes from C6 glioma cells stably expressing rat mu opioid receptor
Assay type: functional, cell membranes

Sequence of Mu-type opioid receptor (P33535 whole entry): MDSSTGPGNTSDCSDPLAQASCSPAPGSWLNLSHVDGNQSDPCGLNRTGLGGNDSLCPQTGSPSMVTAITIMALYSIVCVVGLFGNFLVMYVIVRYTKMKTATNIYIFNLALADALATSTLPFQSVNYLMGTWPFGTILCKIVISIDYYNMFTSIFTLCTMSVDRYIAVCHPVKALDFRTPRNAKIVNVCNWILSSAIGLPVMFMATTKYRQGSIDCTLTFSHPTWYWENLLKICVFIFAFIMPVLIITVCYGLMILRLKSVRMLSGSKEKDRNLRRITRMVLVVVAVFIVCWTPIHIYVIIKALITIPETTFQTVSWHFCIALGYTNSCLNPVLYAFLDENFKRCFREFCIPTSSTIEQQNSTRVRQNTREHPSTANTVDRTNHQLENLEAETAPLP

SMILES: CC1(C)SSC[C@@H](NC(=O)[C@@H](N)Cc2ccc(O)cc2)C(=O)N[C@@H](Cc2ccccc2)C(=O)N[C@@H]1C(N)=O
- EC50: 18.2 nM
